Assay results from patent publication EP4782453A1 (Beyang Therapeutics Co., Ltd., priority 2023, dated 2025).
pIC50: −log10 of the molar value. Where two headings read alike, the source gives them in different places.

Legend:
Menin-MLL = target: T1, Menin-MLL (Homo sapiens, UniProt O00255); experiment: Inhibitory activity against Menin-MLL binding (fluorescence polarization)
T1 construct: His-Menin (M1-L615 end); purchased BIORTUS BP9210
T1 sequence (O00255 1-615 isoform O00255-1): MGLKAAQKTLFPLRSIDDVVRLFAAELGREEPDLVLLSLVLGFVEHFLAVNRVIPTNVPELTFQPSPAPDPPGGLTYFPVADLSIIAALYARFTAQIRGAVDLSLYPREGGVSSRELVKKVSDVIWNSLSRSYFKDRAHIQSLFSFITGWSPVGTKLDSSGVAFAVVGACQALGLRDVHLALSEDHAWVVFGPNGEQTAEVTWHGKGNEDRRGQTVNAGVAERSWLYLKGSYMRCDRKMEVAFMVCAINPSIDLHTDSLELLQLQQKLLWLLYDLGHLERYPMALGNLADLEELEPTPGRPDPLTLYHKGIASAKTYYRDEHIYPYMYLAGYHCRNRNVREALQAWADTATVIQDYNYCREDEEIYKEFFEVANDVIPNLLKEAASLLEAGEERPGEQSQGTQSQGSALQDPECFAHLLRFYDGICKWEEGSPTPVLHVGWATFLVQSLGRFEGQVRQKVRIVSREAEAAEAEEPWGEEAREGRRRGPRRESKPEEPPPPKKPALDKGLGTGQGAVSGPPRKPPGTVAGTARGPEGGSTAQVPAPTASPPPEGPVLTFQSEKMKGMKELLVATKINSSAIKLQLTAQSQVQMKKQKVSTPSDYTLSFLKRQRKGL
Outline: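 Fluorescence polarization competition: compound and 150 nM His-tagged menin (residues M1-L615) sit 15 min at 25 °C in pH 7.5 HEPES buffer with NaCl, DTT and BSA; 15 nM FITC-labelled MLL peptide then binds for 60 min. IC50 fitted sigmoidally from mP values, duplicate wells.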

KG-1a (wild-type MLL) = experiment: Inhibition of proliferation of human tumor cells (Alamar Blue, 7 days), KG-1a control cell line; type: cell-based; conditions: 168 h, KG-1a cells (wild-type MLL, control cell line), method calls the value GI50
Outline: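 GI50 values reflect growth inhibition over 7 days, read by Alamar Blue. Seeding density was 4,000 cells/well except KG-1a (3,000 cells/well); each line grew in its own FBS-containing medium at 37°C.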

[1] = fluorescence polarization; 150 nM His-Menin, 15 nM FITC-MLL; 25°C for 60 min; read-out: Menin-MLL IC50

| SMILES | pIC50 (Menin-MLL; [1]) | pIC50 (KG-1a (wild-type MLL)) | pIC50 (Menin-MLL; read-out: Menin-MLL IC50; fluorescence polarization; 150 nM His-Menin, 15 nM FITC-MLL; 25°C for 60 min) |
| --- | --- | --- | --- |
| CCS(=O)(=O)N[C@H]1CC[C@H](CN2CC(c3cc(-c4ccc(F)cc4C(=O)N4[C@H](C)COC[C@H]4C)c4c(F)nc(C)n4c3)C2)CC1 [Example 197, N-[(1r,4r)-4-{[3-(8-{2-[(3R,5R)-3,5-dimethylmorpholin-4-carbonyl]-4-fluorophenyl}-1-fluoro-3-methylimidazo[1,5-a]pyridin-6-yl)azacyclobutan-1-yl]methyl}cyclohexyl]ethan-1-sulfonamide] |  | 4.70 | 8.19 |
| Cc1nc(F)c2c(-c3ccc(F)cc3C(=O)N3[C@H](C)COC[C@H]3C)cc(C3CN(CC4CCOCC4)C3)cn12 [Example 208] | 8.05 | 4.70 |  |
| Cc1nc(F)c2c(-c3ccc(F)cc3C(=O)N3CCOC[C@H]3C)cc(C3CN([C@H](CCCN4C[C@H]5C[C@@H]4CO5)C(C)C)C3)cn12 [Example 353, (1R,4R)-5-[(4R)-4-[3-(1-fluoro-8-{4-fluoro-2-[(3R)-3-methylmorpholin-4-carbonyl]phenyl}-3-methylimidazo[1,5-a]pyridin-6-yl)azacyclobutan-1-yl]-5-methylhexyl]-2-oxa-5-azabicyclo[2.2.1]heptane] | 8.59 | < 4.70 |  |
| Cc1nc(F)c2c(-c3ccc(F)cc3C(=O)N3CCOC[C@H]3C)cc(C3CN([C@H](CN4CCN(C)CC4)C(C)C)C3)cn12 [Example 368-2, (3R)-4-[5-fluoro-2-(1-fluoro-3-methyl-6-{1-[(2S)-3-methyl-1-(4-methylpiperazin-1-yl)butan-2-yl]azacyclobutan-3-yl}imidazo[1,5-a]pyridin-8-yl)benzoyl]-3-methylmorpholine] | 8.37 | 4.89 |  |
| CO[C@@H]1CCN(CCC[C@H](C(C)C)N2CC(c3cc(-c4ccc(F)cc4C(=O)N4CCOC[C@H]4C)c4c(F)nc(C)n4c3)C2)C1 [Example 202] | 8.37 | 4.70 |  |
| CC(=O)N1CCN(CCC[C@H](C(C)C)N2CC(c3cc(-c4ccc(F)cc4C(=O)N4CCOC[C@H]4C)c4c(F)nc(C)n4c3)C2)CC1 [Example 265] | 7.89 | 4.70 |  |
| CCN1CCN(CCC[C@H](C(C)C)N2CC(c3cc(-c4ccc(F)cc4C(=O)N4CCOC[C@H]4C)c4cnc(C)n4c3)C2)CC1 [Example 324-2] | 8.60 |  |  |
| CCN(C(=O)c1cc(F)ccc1-c1cc(C2CN([C@H](CCCN3CCN(C(C)=O)CC3)C(C)C)C2)cn2c(C)ncc12)C(C)C [Example 311-2, 2-(6-{1-[(3R)-6-(4-acetylpiperazin-1-yl)-2-methylhexan-3-yl]azacyclobutan-3-yl}-3-methylimidazo[1,5-a]pyridin-8-yl)-N-ethyl-5-fluoro-N-(isopropyl)benzamide] | 8.07 |  |  |
| CCN(C(=O)c1cc(F)ccc1-c1cc(C2CN(C[C@H]3CC[C@H](NS(=O)(=O)CC)CC3)C2)cn2c(C)nc(F)c12)C(C)C [Example 137] | 8.19 |  |  |
| Cc1nc(F)c2c(-c3ccc(F)cc3C(=O)N3CCOC[C@H]3C)cc(C3CN([C@H](CO[C@H]4CCCN(C)C4)C(C)C)C3)cn12 [Example 321-2, (3R)-4-[5-fluoro-2-(1-fluoro-3-methyl-6-{1-[(2S)-3-methyl-1-{[(3S)-1-methylpiperidin-3-yl]oxy}butan-2-yl]azacyclobutan-3-yl}imidazo[1,5-a]pyridin-8yl)benzoyl]-3-methylmorpholine] | 8.42 |  |  |
| Cc1nc(F)c2c(-c3ccc(F)cc3C(=O)N3CCOC[C@H]3C)cc(C3CN([C@H](CCCN4CCC(F)CC4)C(C)C)C3)cn12 [Example 314] | 8.60 |  |  |
| CCN(C(=O)c1cc(F)ccc1-c1cc(C2CN([C@@H](C)C3CCN(C(=O)CO)CC3)C2)cn2c(C)nc(F)c12)C(C)C [Example 284-2] | 8.70 |  |  |
| Cc1nc(F)c2c(-c3ccc(F)cc3C(=O)N3CCOC[C@H]3C)cc(C3CN([C@H](CO[C@@H]4CCCN(C)C4)C(C)C)C3)cn12 [Example 297-1, (3R)-4-[5-fluoro-2-(1-fluoro-3-methyl-6-{1-[(2S)-3-methyl-1-{[(3R)-1-methylpiperidin-3-yl]oxy}butan-2-yl]azacyclobutan-3-yl}imidazo[1,5-a]pyridin-8yl)benzoyl]-3-methylmorpholine] | 7.97 |  |  |
| CCN(C(=O)c1cc(F)ccc1-c1cc(C2CN([C@H](CCCN3C4COCC3C4)C(C)C)C2)cn2c(C)ncc12)C(C)C [Example 423] | 8.77 |  |  |

Continued, in another order:

| pIC50 (Menin-MLL; [1]) | pIC50 (KG-1a (wild-type MLL)) | SMILES | pIC50 (Menin-MLL; read-out: Menin-MLL IC50; fluorescence polarization; 150 nM His-Menin, 15 nM FITC-MLL; 25°C for 60 min) |
| --- | --- | --- | --- |
| 7.82 |  | CC[C@@H](C1CCN(C(C)=O)CC1)N1CC(c2cc(-c3ccc(F)cc3C(=O)N3CCOC[C@H]3C)c3c(F)nc(C)n3c2)C1 [Example 280-1, 1-{4-[(1S)-1-[3-(1-fluoro-8-{4-fluoro-2-[(3R)-3-methylmorpholin-4-carbonyl]phenyl}-3-methylimidazo[1,5-a]pyridin-6-yl)azacyclobutan-1-yl]propyl]piperidin-1-yl}ethan-1-one] |  |
| 8.57 |  | Cc1ncc2c(-c3ccc(F)cc3C(=O)N3CCOC[C@H]3C)cc(C3CN([C@H](CCCN4CCN(C)CC4)C(C)C)C3)cn12 [Example 323-2, (3R)-4-[5-fluoro-2-(3-methyl-6-{1-[(3R)-2-methyl-6-(4-methylpiperazin-1-yl)hexan-3-yl]azacyclobutan-3-yl}imidazo[1,5-a]pyridin-8-yl)benzoyl]-3-methylmorpholine] |  |
| 8.35 | 4.70 | Cc1nc(F)c2c(-c3ccc(F)cc3C(=O)N3CCOCC3C)cc(C3CN(C(CCCN4CCCC(O)C4)C(C)C)C3)cn12 (centres unmarked) [Example 292] |  |
| 8.48 | 4.70 | CCN1CCN(CCC[C@H](C(C)C)N2CC(c3cc(-c4ccc(F)cc4C(=O)N4CCOC[C@H]4C)c4c(F)nc(C)n4c3)C2)CC1 [Example 277] |  |
| 8.28 | 4.70 | COCCN(C)CCC[C@H](C(C)C)N1CC(c2cc(-c3ccc(F)cc3C(=O)N3[C@H](C)COC[C@H]3C)c3cnn(C)c3c2)C1 [Example 186-2, [(4R)-4-[3-(4-{2-[(3R,5R)-3,5-dimethylmorpholin-4-carbonyl]-4-fluorophenyl}-1-methyl-1H-indazol-6-yl)azacyclobutan-1-yl]-5-methylhexyl](2-methoxyethyl)methylamine] |  |
| 8.37 | 4.70 | COCCN(C)CCC[C@H](C(C)C)N1CC(c2cc(-c3ccc(F)cc3C(=O)N3CCOC[C@H]3C)c3c(F)nc(C)n3c2)C1 [Example 200-1] |  |
| 7.99 | 4.70 | CC(=O)N1CCC(CN2CC(c3cc(-c4ccc(F)cc4C(=O)N4[C@H](C)COC[C@H]4C)c4c(F)nc(C)n4c3)C2)CC1 [Example 205] |  |
| 8.59 | 4.70 | COC1CCN(CCCC(C(C)C)N2CC(c3cc(-c4ccc(F)cc4C(=O)N4CCOCC4C)c4c(F)nc(C)n4c3)C2)C1 (centres unmarked) [Example 201-1] |  |
| 8.74 | 4.94 | CCN(C(=O)c1cc(F)ccc1-c1cc(C2CN([C@H](CCCN3C[C@H]4C[C@@H]3CO4)C(C)C)C2)cn2c(C)ncc12)C(C)C [Example 379, N-ethyl-5-fluoro-2-(3-methyl-6-{1-[(3R)-2-methyl-6-[(1R,4R)-2-oxa-5-azabicyclo[2.2.1]heptan-5-yl]hexan-3-yl]azacyclobutan-3-yl}imidazo[1,5-a]pyridin-8-yl)-N-(isopropyl)benzamide] |  |
| 8.10 | 4.70 | CO[C@@H]1CCCN(CCC[C@H](C(C)C)N2CC(c3cc(-c4ccc(F)cc4C(=O)N4CCOC[C@H]4C)c4c(F)nc(C)n4c3)C2)C1 [Example 305] |  |
| 8.41 |  | CCN(C(=O)c1cc(F)ccc1-c1cc(C2CN([C@H](CN3CCN(CCO)CC3)C(C)C)C2)cn2c(C)ncc12)C(C)C [Example 431, N-ethyl-5-fluoro-2-(6-{1-[(2S)-1-[4-(2-hydroxylethyl)piperazin-1-yl]-3-methylbutan-2-yl]azacyclobutan-3-yl}-3methylimidazo[1,5-a]pyridin-8-yl)-N-(isopropyl)benzamide] |  |
| 8.44 |  | CCN(C(=O)c1cc(F)ccc1-c1cc(C2CN([C@H](CCCN3CCN(C)CC3)C(C)C)C2)cn2c(C)ncc12)C(C)C [Example 310-2, N-ethyl-5-fluoro-2-(3-methyl-6-{1-[(3R)-2-methyl-6-(4-methylpiperazin-1-yl)hexan-3-yl]azacyclobutan-3-yl}imidazo[1,5-a]pyridin-8-yl)-N-(isopropyl)benzamide] |  |
| 8.55 |  | CCN(C(=O)c1cc(F)ccc1-c1cc(C2CN([C@H](CCCN3CCN(C)CC3)C(C)C)C2)cn2c(C)nc(F)c12)C(C)C [Example 312-2] |  |
